{"source": "patent US10759735B2", "about": "“Bridged bicyclic compounds and their derivatives as neuroprotective agents and methods of use thereof” (Florida Atlantic University Board of Trustees, priority 2018, dated 2020)", "format_in_all_cases": "in vivo, Drosophila melanogaster", "key": {"[1]": {"test_system": "Drosophila larval neuromuscular junction synaptic transmission", "experiment": "neuromuscular junction (NMJ) postsynaptic transmission assay: time to synaptic failure under acute oxidative stress (2.25 mM H2O2)", "details": "for EC50: Drosophila melanogaster, read-out: EC50 (half-maximal effective concentration) in protecting neurotransmission from H2O2 exposure, 2.25 mM H2O2 in HL3 saline, w1118 third instar larvae, from % maximal response of time to synaptic failure", "description": "Small molecule-mediated neuroprotection is an area of research that has important implications for several maladies such as migraine, Alzheimer's disease, and stroke. One promising method to measure the neuroprotective effects of various medicinal compounds against oxidative stress in D. melanogaster has been developed (Caplan et al. Journal of Neurophysiology, 2013, 109, 3, 649-658). In this phenotypic model, fly larvae have their synaptic transmission measured via electrical probes in the post-synaptic neuromuscular junction (NMJ). The time until synaptic failure is first measured to obtain a control. An oxidizing solution (2.25 mM of hydrogen peroxide) is then introduced to the tissue and the time to synaptic failure is again measured. Hydrogen peroxide greatly reduces the time to synaptic failure relative to the control by damaging neurons through oxidative stress. Once the time to synaptic failure has been established with hydrogen peroxide alone, then different compounds can be introduced at varying concentrations along with the hydrogen peroxide solution, and their effects on the time to synaptic failure are measured and compared to the two controls.\nA series of compounds generated using the methods described herein were subjected to a neuromuscular junction (NMJ) postsynaptic transmission assay. Resveratrol was included as a neuroprotectant control. When a wash of hydrogen peroxide (2.25 mM) was introduced, the time to synaptic failure was shortened from approximately 150 min to approximately 40 min (FIG. 2). Introducing resveratrol at 25 nM restored the time to synaptic failure to approximately 150 min upon addition of hydrogen peroxide (2.25 mM).\nTo quantify tolerance of neurotransmission to acute oxidative stress, electrophysiological recordings from Drosophila larval preparations were conducted in a hemolymph-like 3 (HL3) saline containing 2.25 mM hydrogen peroxide (H2O2).\nWandering third instar larvae (≈110 hours old) from the fruit fly, Drosophila melanogaster, were utilized for all electrophysiological experiments described throughout this study. Larvae were reared at 25° C. on 12 h:12 h light-dark (LD) cycles in an incubator. Only w^1118 larvae were utilized in this study.\n(§1) All electrophysiological experiments were performed as previously described with the exception of the resistance of the intracellular electrodes (60-90 MΩ) (Caplan et al. J. Neurophys. 109, 649-658). Excitatory junction potentials (EJPs) were elicited via repetitive stimulation (0.3 ms pulses delivered suprathreshold at a frequency of 1 Hz) and measured until synaptic failure occurred, which was characterized by an EJP amplitude of <1 mV being recorded. Electrophysiological recordings from larval preparations were conducted in hemolymph-like 3 (HL3) saline containing 2.25 mM H2O2. […] HL3 saline containing 1.5 mM Ca^2+ and 20 mM Mg^2+ was used as the recording saline throughout this study. HL3 has been utilized by other research groups to record EJPs.^20 Intracellular recordings of resting membrane potential were taken from Drosophila larval muscle 6.\nAll test compounds and H2O2 were applied to the Drosophila larval NMJ preparation as previously described by Caplan et al. (supra). However, the compounds utilized in the Caplan et al. work were dissolved in dimethyl sulfoxide (DMSO), whereas the compounds utilized in the present study are water-soluble at the concentrations used and thus were dissolved in ddH2O.\nThe statistics utilized in the vertical bar charts and line graphs were performed as previously described with the exception of the error bars being presented as mean±SEM instead of mean±SD. The EC50, or half maximal effective concentration, of each test compound was determined by plotting the logio(compound dose) against the corresponding average percentage of the maximal effectiveness, as previously described (Caplan et al. J. Neurophys. 109, 649-658)."}, "[2]": {"test_system": "Drosophila larval muscle 6 resting membrane potential", "experiment": "intracellular recording of resting membrane potential (RMP) during acute oxidative stress", "details": "1 nM with 2.25 mM H2O2 versus H2O2 alone", "description": "FIGS. 8A and 8B are a pair of graphs showing that during acute oxidative stress, Drosophila larval muscle resting membrane potential (RMP) and EJP amplitude decline. […] 8B) EJP amplitude was recorded in the same larval preparations (n=5 per group). […] Data is presented as mean±SEM.\nTo ensure that the results obtained using compound 1 and resveratrol were not due to changes in the EJP, additional control experiments were performed, as previously described (Caplan et al. J. Neurophys. 109, 649-658). […] It was also observed that resting membrane potential (RMP) and EJP amplitude decline in larvae treated with H2O2 alone and H2O2 with 1 nM compound 1 (see FIGS. 8A. 8B).\nas §1, with “HL3 has been utilized by other research groups to record EJPs.^20 Intracellular recordings of resting membrane potential were taken from Drosophila larval muscle 6.” left out"}, "[3]": {"test_system": "excitatory junction potential (EJP) at the Drosophila NMJ", "experiment": "control recordings of excitatory junction potential (EJP) shape and amplitude", "details": "1 nM, in the presence and absence of 2.25 mM H2O2, ten minutes after bath switch", "excerpt": "In all panels, the curved black line represents the average EJP in hemolymph-like saline (HL3) one minute before the recording bath was replaced with HL3 containing the drug alone or the drug and H2O2. The curved gray line represents the average EJP from the same larvae ten minutes after the bath was switched from HL3 saline to HL3 containing either the drug alone or the drug and H2O2."}}, "note": "Entries after “also recorded” stand apart in the source; their conditions may differ.", "data": [{"smiles": "COc1cc(OC)cc(C2CC3C(OC(C)=O)C(C)=C(C)C2(C(=O)O)C3OC(C)=O)c1", "note": "(racemic) [compound 1, 7-(3,5-dimethoxyphenyl)-4,8-diacetoxy-2,3-dimethylbicyclo[3.2.1]oct-2-ene-1-carboxylic acid]", "values": [{"measurement": "time until synaptic failure restored", "setting": "[1]; 0.5 nM, in the presence of hydrogen peroxide", "result": 80, "unit": "%"}, {"measurement": "normal synaptic function maintained", "setting": "[1]; 25 nM, H2O2 2.25 mM, wild-type fruit fly larvae", "result": 100, "unit": "%"}, {"measurement": "time to synaptic failure compared to control and resveratrol-treated preparations", "setting": "[1]; 0.5-5 nM dosage range, 2.25 mM H2O2, P<0.001", "result": "significantly increased time to synaptic failure"}, {"measurement": "EC50", "setting": "[1]", "result": "~0.21", "unit": "nM"}, {"measurement": "neuroprotection in screening of initial compounds", "setting": "[1]; H2O2 2.25 mM, wild-type fruit fly larvae", "result": "potent neuroprotectants"}, {"measurement": "neuroprotective effect compared to resveratrol across dosages", "setting": "[1]; almost all dosages tested (0.5 nM to 25 nM)", "result": "stronger neuroprotective effects"}, {"measurement": "protection of synaptic transmission from acute oxidative stress", "setting": "[1]; at a subnanomolar level", "result": "protect synaptic transmission from acute oxidative stress"}, {"measurement": "dose dependence of neuroprotective effect", "setting": "[1]; dose-response, 2.25 mM H2O2", "result": "dose-dependent manner"}, {"measurement": "neuroprotective effect at lowest dose", "setting": "[1]; doses as low as 500 pM, H2O2 exposure", "result": "strong neuroprotective effects"}, {"measurement": "ion channel stabilization", "setting": "[1]; general statement ('appear to have'), no separate test described", "result": "ion channel stabilization effects"}, {"measurement": "toxicity", "setting": "[1]; general statement, no separate test described", "result": "non-toxic"}, {"measurement": "time until synaptic failure compared to control larvae treated with 2.25 mM H2O2 only", "setting": "[1]; low doses (0.5 nM and 1 nM)", "result": "significantly increased the amount of time until synaptic failure"}, {"measurement": "neuroprotective effect compared to resveratrol", "setting": "[1]; similar dosage of resveratrol, P<0.001", "result": "stronger neuroprotective effects"}, {"measurement": "decline of resting membrane potential (RMP)", "setting": "[2]", "result": "significantly slowed the decline of RMP"}, {"measurement": "acute effect on the shape or amplitude of the EJP", "setting": "[3]", "result": "do not have a significant acute effect; also recorded: do not acutely affect"}]}, {"smiles": "COc1cc(OC)cc(C2CC3C(O)C(C)=C(C)C2(C(=O)O)C3O)c1", "note": "(racemic) [compound 2, 7-(3,5-dimethoxyphenyl)-4,8-dihydroxy-2,3-dimethylbicyclo[3.2.1]oct-2-ene-1-carboxylic acid]", "values": [{"measurement": "EC50", "setting": "[1]", "result": 2.99, "unit": "nM"}, {"measurement": "time to synaptic failure during H2O2 exposure compared to control preparations", "setting": "[1]; higher doses, P<0.001", "result": "significantly increased time to synaptic failure"}, {"measurement": "time to failure during H2O2 exposure", "setting": "[1]; low doses (0.1 nM and 0.5 nM)", "result": "did not prolong time to failure"}, {"measurement": "time to synaptic failure compared to control", "setting": "[1]; only at the 5.0 nM dosage, 2.25 mM H2O2, P<0.001", "result": "similarly increased time to synaptic failure"}, {"measurement": "EC50 relative to compound 1", "setting": "[1]; ratio of EC50 values", "result": "over ten-fold higher"}]}, {"smiles": "Oc1ccc(C=Cc2cc(O)cc(O)c2)cc1", "note": "[resveratrol, reference compound]", "values": [{"measurement": "time to synaptic failure", "setting": "[1]; 25 nM with hydrogen peroxide 2.25 mM (H2O2 alone approx. 40 min, no H2O2 approx. 150 min)", "result": "approximately 150 min"}, {"measurement": "neuroprotectant activity from the dose curve", "setting": "[1]; at the chosen dosages, unusual dose curve, EC50 not reliably determinable", "result": "does not act as a neuroprotectant"}, {"measurement": "acute effect on the shape or amplitude of the EJP", "setting": "[3]", "result": "do not have a significant acute effect; also recorded: do not acutely affect"}]}]}
